Columns and labels:
Assay type in all cases: cell-based
H358 cells (G12C) = assay: Cell viability assay (CellTiter-Glo), H358 cells; settings: Homo sapiens, NCI-H358, 72 h; H358 cells, 3 days incubation, CellTiter-Glo luminescence; read-out: Inhibition of Cancerous Cells IC50 H358 (G12C)
Protocol: (§1) H358, H23, SW48, and AsPC-1 cells were cultured in RPMI 1640 media supplemented with 10% fetal bovine serum, streptomycin, and penicillin. Lovo and SW480 cells were cultured in DMEM media supplemented with 10% fetal bovine serum, streptomycin, and penicillin. The cell lines were plated in their respective medium supplemented with 2.5% fetal bovine serum, streptomycin, and penicillin. All cell lines were plated in white walled 96-well plates at 2,000 cells/well or 384-well plates at 500 cells/well, except Lovo, which were plated at 4,000 or 1,000 cells/well, respectively. The cells were incubated in DMSO (control) or a compound for 3 days at 37° C. under 5% CO2. A CELLTITER-GLO® reagent (100 μL) was then added to each well. After a 10 min incubation with shaking, luminescence was measured using an ENVISION® multimode plate reader.

SW48 cells (wt) = assay: Cell viability assay (CellTiter-Glo), SW48 cells; settings: Homo sapiens, 72 h; SW48 cells, 3 days incubation, CellTiter-Glo luminescence; read-out: Inhibition of Cancerous Cells IC50 SW48 (wt)
Protocol: as §1

SW480 cells (G12V) = assay: Cell viability assay (CellTiter-Glo), SW480 cells; settings: Homo sapiens, 72 h; SW480 cells, 3 days incubation, CellTiter-Glo luminescence; read-out: Inhibition of Cancerous Cells IC50 SW480 (G12V)
Protocol: as §1

Lovo cells (G13D) = assay: Cell viability assay (CellTiter-Glo), Lovo cells; settings: Homo sapiens, 72 h; Lovo cells, 3 days incubation, CellTiter-Glo luminescence; read-out: Inhibition of Cancerous Cells IC50 Lovo (G13D)
Protocol: as §1

Compound | IC50 (H358 cells (G12C)) | IC50 (SW48 cells (wt)) | IC50 (SW480 cells (G12V)) | IC50 (Lovo cells (G13D))
COc1cc2c(N[C@H](C)c3cccc(Br)c3)nc(C)nc2cc1OCCCCCN1CCN(C(=O)CNc2cc(F)cc3c2CN(C2CCC(=O)NC2=O)C3=O)CC1 (stereo partly drawn) [Compound A55, 3-(4-((2-(4-(5-((4-(((R)-1-(3-Bromophenyl)ethyl)amino)-6-methoxy-2-methyl-quinazolin-7-yl)oxy)pentyl)piperazin-1-yl)-2-oxoethyl)amino)-6-fluoro-1-oxoisoindolin-2-yl)piperidine-2,6-dione] | 2000 nM | 1400 nM | 1800 nM | 640 nM
CNCc1ccccc1-c1csc([C@H](C)Nc2nc(C)nc3c(CCCCCCCN4CCC(c5cc(F)cc6c5CN(C5CCC(=O)NC5=O)C6=O)CC4)c(OC)c(OC)cc23)c1 (stereo partly drawn) [Compound A56, 3-(4-(1-(7-(6,7-Dimethoxy-2-methyl-4-(((S)-1-(4-(2-((methylamino)methyl)-phenyl)thiophen-2-yl)ethyl)amino)quinazolin-8-yl)heptyl)piperidin-4-yl)-6-fluoro-1-oxoisoindolin-2-yl)piperidine-2,6-dione] | 360 nM | 190 nM | 260 nM | 150 nM
COc1cc2c(N[C@H](C)c3cccc(Br)c3)nc(C)nc2cc1OCCCCN1CCN(C(=O)CNc2cc(F)cc3c2CN(C2CCC(=O)NC2=O)C3=O)CC1 (stereo partly drawn) [Compound A57, 3-(4-((2-(4-(4-((4-(((R)-1-(3-Bromophenyl)ethyl)amino)-6-methoxy-2-methyl-quinazolin-7-yl)oxy)butyl)piperazin-1-yl)-2-oxoethyl)amino)-6-fluoro-1-oxoisoindolin-2-yl)piperidine-2,6-dione] | 3300 nM | 2900 nM | 5200 nM | 900 nM
COc1cc2c(N[C@H](C)c3cccc(Br)c3)nc(C)nc2cc1OCCCCCCCCN1CCC(c2cc(F)cc3c2CN(C2CCC(=O)NC2=O)C3=O)CC1 (stereo partly drawn) [Compound A58, 3-(4-(1-(8-((4-(((R)-1-(3-Bromophenyl)ethyl)amino)-6-methoxy-2-methyl-quinazolin-7-yl)oxy)octyl)piperidin-4-yl)-6-fluoro-1-oxoisoindolin-2-yl)piperidine-2,6-dione] | 1200 nM | 420 nM | 360 nM | 300 nM
COc1cc2c(N[C@H](C)c3cccc(Br)c3)nc(C)nc2cc1OCCCCCCNC(=O)[C@H](CC(C)C)NC(=O)[C@@H](O)[C@H](N)Cc1ccccc1 [Compound B6, (S)-2-((2S,3R)-3-amino-2-hydroxy-4-phenylbutanamido)-N-(6-((4-(((R)-1-(3-bromophenyl)ethyl)amino)-6-methoxy-2-methylquinazolin-7-yl)oxy)hexyl)-4-methylpentanamide] | 1200 nM | 680 nM | 660 nM | 1000 nM
COc1cc2c(N[C@H](C)c3cccc(Br)c3)nc(C)nc2cc1OCCCCCCCCCCNC(=O)[C@H](CC(C)C)NC(=O)[C@@H](O)[C@H](N)Cc1ccccc1 [Compound B8, (S)-2-((2S,3R)-3-Amino-2-hydroxy-4-phenylbutanamido)-N-(10-((4-(((R)-1-(3-bromophenyl)ethyl)amino)-6-methoxy-2-methylquinazolin-7-yl)oxy)decyl)-4-methylpentanamide] | 1200 nM | 1000 nM | 550 nM | 390 nM

The next lines start with the values.

IC50 (H358 cells (G12C)) | IC50 (SW48 cells (wt)) | IC50 (SW480 cells (G12V)) | IC50 (Lovo cells (G13D)) | Compound
> 10000 nM | > 10000 nM | > 10000 nM | > 10000 nM | COc1ccc(C2=N[C@@H](c3ccc(Cl)cc3)[C@@H](c3ccc(Cl)cc3)N2C(=O)N2CCN(CC(=O)NCCCCCCOc3cc4nc(C)nc(N[C@H](C)c5cccc(Br)c5)c4cc3OC)C(=O)C2)c(OC(C)C)c1 [Compound C1, 2-(4-((4S,5R)-4,5-Bis(4-chlorophenyl)-2-(2-isopropoxy-4-methoxyphenyl)-4,5-dihydro-1H-imidazole-1-carbonyl)-2-oxopiperazin-1-yl)-N-(6-((4-(((R)-1-(3-bromophenyl)-ethyl)amino)-6-methoxy-2-methylquinazolin-7-yl)oxy)hexyl)acetamide]
> 10000 nM | > 10000 nM | > 10000 nM | > 10000 nM | COc1ccc(C2=N[C@@H](c3ccc(Cl)cc3)[C@@H](c3ccc(Cl)cc3)N2C(=O)N2CCN(CC(=O)NCCCCCCCCOc3cc4nc(C)nc(N[C@H](C)c5cccc(Br)c5)c4cc3OC)C(=O)C2)c(OC(C)C)c1 [Compound C2, 2-(4-((4S,5R)-4,5-bis(4-chlorophenyl)-2-(2-isopropoxy-4-methoxyphenyl)-4,5-dihydro-1H-imidazole-1-carbonyl)-2-oxopiperazin-1-yl)-N-(8-((4-(((R)-1-(3-bromophenyl)-ethyl)amino)-6-methoxy-2-methylquinazolin-7-yl)oxy)octyl)acetamide]
> 10000 nM | > 10000 nM | > 10000 nM | > 10000 nM | COc1ccc(C2=N[C@@H](c3ccc(Cl)cc3)[C@@H](c3ccc(Cl)cc3)N2C(=O)N2CCN(CC(=O)NCCCCCCCCCCOc3cc4nc(C)nc(N[C@H](C)c5cccc(Br)c5)c4cc3OC)C(=O)C2)c(OC(C)C)c1 [Compound C3, 2-(4-((4S,5R)-4,5-Bis(4-chlorophenyl)-2-(2-isopropoxy-4-methoxyphenyl)-4,5-dihydro-1H-imidazole-1-carbonyl)-2-oxopiperazin-1-yl)-N-(10-((4-(((R)-1-(3-bromophenyl)-ethyl)amino)-6-methoxy-2-methylquinazolin-7-yl)oxy)decyl)acetamide]
> 10000 nM | > 10000 nM | > 10000 nM | > 10000 nM | COc1ccc(C2=N[C@@H](c3ccc(Cl)cc3)[C@@H](c3ccc(Cl)cc3)N2C(=O)N2CCN(CC(=O)NCCCCCCCCOc3cc4nc(C)nc(N[C@H](C)c5cccc(Br)c5)c4cc3OC)CC2)c(OC(C)C)c1 [Compound C4, 2-(4-((4S,5R)-4,5-bis(4-chlorophenyl)-2-(2-isopropoxy-4-methoxyphenyl)-4,5-dihydro-1H-imidazole-1-carbonyl)piperazin-1-yl)-N-(8-((4-(((R)-1-(3-bromophenyl)ethyl)-amino)-6-methoxy-2-methylquinazolin-7-yl)oxy)octyl)acetamide]
> 10000 nM | > 10000 nM | > 10000 nM | > 10000 nM | COc1ccc(C2=N[C@@H](c3ccc(Cl)cc3)[C@@H](c3ccc(Cl)cc3)N2C(=O)N2CCN(CC(=O)NCCCCCCCCCCOc3cc4nc(C)nc(N[C@H](C)c5cccc(Br)c5)c4cc3OC)CC2)c(OC(C)C)c1 [Compound C5, 2-(4-((4S,5R)-4,5-Bis(4-chlorophenyl)-2-(2-isopropoxy-4-methoxyphenyl)-4,5-dihydro-1H-imidazole-1-carbonyl)piperazin-1-yl)-N-(10-((4-(((R)-1-(3-bromophenyl)ethyl)-amino)-6-methoxy-2-methylquinazolin-7-yl)oxy)decyl)acetamide]
> 10000 nM | > 10000 nM | > 10000 nM | > 10000 nM | COc1ccc(C2=N[C@@H](c3ccc(Cl)cc3)[C@@H](c3ccc(Cl)cc3)N2C(=O)N2CCN(CC(=O)NCCCCCCCCCCCCOc3cc4nc(C)nc(N[C@H](C)c5cccc(Br)c5)c4cc3OC)CC2)c(OC(C)C)c1 [Compound C6, 2-(4-((4S,5R)-4,5-Bis(4-chlorophenyl)-2-(2-isopropoxy-4-methoxyphenyl)-4,5-dihydro-1H-imidazole-1-carbonyl)piperazin-1-yl)-N-(12-((4-(((R)-1-(3-bromophenyl)ethyl)-amino)-6-methoxy-2-methylquinazolin-7-yl)oxy)dodecyl)acetamide]
1600 nM | 7900 nM | 1300 nM | 6400 nM | COc1cc2c(N[C@H](C)c3cccc(Br)c3)nc(C)nc2cc1OCCCCCCC(=O)N[C@H](C(=O)N1C[C@H](O)C[C@H]1C(=O)NCc1ccc(-c2scnc2C)cc1)C(C)(C)C [Compound D1, (2S,4R)-1-((S)-2-(7-((4-(((R)-1-(3-Bromophenyl)ethyl)amino)-6-methoxy-2-methylquinazolin-7-yl)oxy)heptanamido)-3,3-dimethylbutanoyl)-4-hydroxy-N-(4-(4-methyl-thiazol-5-yl)benzyl)pyrrolidine-2-carboxamide]
> 10000 nM | > 10000 nM | > 10000 nM | > 10000 nM | COc1cc2c(N[C@H](C)c3cccc(Br)c3)nc(C)nc2cc1OCCCCCCCCCCC(=O)N[C@H](C(=O)N1C[C@H](O)C[C@H]1C(=O)NCc1ccc(-c2scnc2C)cc1)C(C)(C)C [Compound D3, (2S,4R)-1-((S)-2-(11-((4-(((R)-1-(3-Bromophenyl)ethyl)amino)-6-methoxy-2-methylquinazolin-7-yl)oxy)undecanamido)-3,3-dimethylbutanoyl)-4-hydroxy-N-(4-(4-methyl-thiazol-5-yl)benzyl)pyrrolidine-2-carboxamide]

Source: patent publication US20240025863A1, “SOS1 PROTEIN DEGRADERS, PHARMACEUTICAL COMPOSITIONS THEREOF, AND THEIR THERAPEUTIC APPLICATIONS” (BioTheryX, Inc., priority 2020, published 2024)
